According to US4695580A, “Phenylserine derivatives and processes for preparing the same” (Sumitomo Pharmaceuticals Company, Ltd., priority 1983, dated 1987):
Structures can show the parent of a compound that is named as a salt.

Key:
SRS-A = experiment: Anti-SRS-A activity by Magnus method, isolated guinea pig ileum; format: cell-based; conditions: Cavia porcellus, read-out: Inhibition (anti-SRS-A activity, inhibition rate); for inhibition at 1 µM: drug at 10^-6 M (values marked *); for inhibition at 1 µg/mL: 5 min, drug at 10^-6 g/ml (values without *)
Procedure: Anti-SRS-A activity of the drugs (the compounds of the present invention) was assayed by using isolated ileum of guinea pig (weighing 300-400 g, male).
SRS-A sample was prepared as follows.
Male albino guinea-pigs were administered by intraperitoneal and subcutaneous injection of 50 mg ovalbumin emulsified with a half amount of Freund's complete adjuvant every other day (total three times). 4 Weeks after the administration lungs were isolated from guinea-pigs and chopped into small pieces. The tissue was placed in Tyrode solution containing indomethacin (1μg/ml) and incubated at 37° C. for 15 min. The incubated solution was then centrifuged and the supernatant fluid was used for the SRS-A sample.
The anti-SRS-A activity was assayed by Magnus method, i.e. a modified method by Eda et al. [cf. Bulletin of Pharmacology in Japan, 66, 194-213 (1970)] using isolated guinea pig ileum. That is, an isolated ileum of guinea pig was hung within an organ bath which was filled with a Tyrode solution containing mepyramine (0.4 μg/ml) and atropine (0.35,/μg/ml) at 37° C. under aeration. The SRS-A sample was given until reproducible contractions were obtained. A solution of the drug (the compounds of the present inventions was added thereto in the final concentration of 10^-6 g/ml or 10^-6 M. After 5 minutes, the SRS-A sample was again acted, and the change of contractile response was measured. Based on the change of contractile response, the anti-SRS-A activity (inhibition rate) was calculated by the following equation: [formula] wherein
a^1 : Contractile response before administration of a drug.
a^2 : Contractile response after administration of a drug.

5-lipoxygenase = biological target: T1, 5-lipoxygenase (Cavia porcellus, UniProt A0A286X958); experiment: 5-Lipoxygenase inhibitory activity (inhibition of 5-HETE production) in guinea pig abdominal leucocytes; format: cell-based; conditions: 10 μM compound, A 23187, 14C-arachidonic acid, read-out: Inhibition (5-HETE production, inhibition rate)
T1 construct: leucocytes isolated from abdominal cavity of guinea pig; endogenous in cells; host or cells: leucocytes isolated from the abdominal cavity of guinea pig (intact cells)
T1 sequence (A0A286X958 1-674): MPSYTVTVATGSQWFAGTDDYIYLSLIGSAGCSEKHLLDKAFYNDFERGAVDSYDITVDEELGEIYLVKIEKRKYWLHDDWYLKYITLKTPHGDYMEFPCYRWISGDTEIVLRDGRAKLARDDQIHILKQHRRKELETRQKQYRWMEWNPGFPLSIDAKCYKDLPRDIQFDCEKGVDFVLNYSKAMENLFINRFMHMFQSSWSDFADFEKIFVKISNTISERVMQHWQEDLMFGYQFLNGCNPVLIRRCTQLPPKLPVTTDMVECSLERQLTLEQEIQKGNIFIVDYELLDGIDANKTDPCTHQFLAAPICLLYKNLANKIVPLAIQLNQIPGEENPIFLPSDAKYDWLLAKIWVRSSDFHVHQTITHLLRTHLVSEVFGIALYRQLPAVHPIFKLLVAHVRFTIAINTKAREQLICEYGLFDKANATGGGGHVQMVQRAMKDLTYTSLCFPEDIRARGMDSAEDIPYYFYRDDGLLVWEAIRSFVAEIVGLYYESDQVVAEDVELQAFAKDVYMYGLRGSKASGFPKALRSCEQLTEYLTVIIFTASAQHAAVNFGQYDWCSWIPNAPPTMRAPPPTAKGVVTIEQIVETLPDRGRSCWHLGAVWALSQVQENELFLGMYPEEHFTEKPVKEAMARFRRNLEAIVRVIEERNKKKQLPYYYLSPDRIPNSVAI
Procedure: The inhibitory activity was assayed in the same manner as described by J. Harvey et al. That is, leucocytes isolated from abdominal cavity of guinea pig were suspended in Krebs Ringer buffer (KRB, pH 7.4) in a concentration of 2.2×10^7 […]. The leucocytes suspension (935 μl) was preincubated with shaking at 37° C. for 10 minutes, and thereto was added a solution (10 μl) of test drugs (the compounds of the present invention) in dimethylsulfoxide (DMSO) (the final concentration of the compound being 10 μM in the solution). The mixture was incubated for 10 minutes, and then, ^14 C-arachidonic acid (0.1 μCi, 50 μl) (in 5% ethanol/KRB) and A 23187 (J. Pharmacol. Methods, 9, 147-155(1983), 5 μg in 5 μl DMSO) were added thereto, and the mixture was further incubated for 10 minutes. Ice-cooled 0.2M aqueous citric acid solution (100 μl) was added thereto in order to stop the reaction, and then, water (4 ml) was further added thereto. The mixture was twice extracted with ethyl acetate (each 2.5 ml), and the organic layer was distilled to dryness under nitrogen. The resulting residue was dissolved in ethyl acetate and the solution was applied onto a TLC plate. After developing with toluene-dioxane-acetic acid (65:34:1.5 V/V), 5-HETE (5-hydroxyeicosatetraenoic acid) produced by 5-lipoxygenase was measured with TLC scanner. The inhibition rate (%) was calculated by comparing the amount of 5-HETE between the addition and non-addition of a drug by the following equation: [formula] wherein
b^1 : Amount of produced 5-HETE in case of non-addition of a drug.
b^2 Amount of produced 5-HETE in case of addition of a drug.

| inhibition at 10 µM (5-lipoxygenase) | SMILES | inhibition at 1 µM (SRS-A) | inhibition at 1 µg/mL (SRS-A) |
| --- | --- | --- | --- |
|  | O=C([C@@H](NCCCc1ccccc1)[C@H](O)c1ccc(O)c(O)c1)N1CCCC1 (relative stereo) [Compd. No. 13] | 100% |  |
| > 70% | CC(CCc1ccccc1)N[C@H](C(=O)N1CCCC1)[C@H](O)c1ccc(O)c(O)c1 (relative stereo) [Compd. No. 19, DL-Threo-3-(3,4-dihydroxyphenyl)-N-(1-methyl-3phenylpropyl)serine pyrrolidine amide] |  | 100% |
|  | COC(=O)[C@@H](NC(C)CCc1ccccc1)[C@H](O)c1ccc(O)c(O)c1 (relative stereo) [Compd. No. 120, DL-threo-3-(3,4-dihydroxyphenyl)-N-(1-methyl-3-phenylpropyl)serine methyl ester] |  | 97% |
| > 70% | COC(=O)[C@@H](NC(C)CCc1ccc(OC)cc1)[C@H](O)c1ccc(O)c(O)c1 (relative stereo) [Compd. No. 122, DL-threo-3-(3,4-dihydroxyphenyl)-N-[1-methyl-3-(p-methoxyphenyl)propyl]serine methyl ester] |  | 94% |
| > 70% | CCOC(=O)[C@@H](NC(C)CCc1ccccc1)[C@H](O)c1ccc(O)c(O)c1 (relative stereo) [Compd. No. 132, DL-Threo-3-(3,4-dihydroxyphenyl)-N-(1-methyl-3-phenylpropyl)serine ethyl ester] |  | 82% |
|  | CC(CCc1ccccc1)N[C@H](C(=O)OC(C)C)[C@H](O)c1ccc(O)c(O)c1 (relative stereo) [Compd. No. 158, DL-threo-3-(3,4-dihydroxyphenyl)-N-(1-methyl-3-phenylpropyl)serine isopropyl ester] |  | 96% |
|  | CC(C)COC(=O)[C@@H](NC(C)CCc1ccccc1)[C@H](O)c1ccc(O)c(O)c1 (relative stereo) [Compd. No. 170, DL-threo-3-(3,4-dihydroxyphenyl)-N-(1-methyl-3-phenylpropyl)serine isobutyl ester] |  | 85% |
|  | CC(CCc1ccccc1)N[C@H](C(=O)NN)[C@H](O)c1ccc(O)c(O)c1 (relative stereo) [Compd. No. 178, DL-threo-3-(3,4-dihydroxyphenyl)-N-(1-methyl-3-phenylpropyl)serine hydrazide] |  | 81% |
| > 70% | CC(CCc1ccccc1)N[C@H](CO)[C@H](O)c1ccc(O)c(O)c1 (relative stereo) [Compd. No. 183, DL-threo-1-(3,4-dihydroxyphenyl)-2-(1-methyl-3-phenylpropyl)amino-1,3-propanediol 1/2 oxalate] |  | 97% |
|  | CC(CCc1ccccc1)N[C@H](COC(N)=O)[C@H](O)c1ccc(O)c(O)c1 (relative stereo) [Compd. No. 189, DL-threo-1-(3,4-dihydroxyphenyl)-2-(1-methyl-3-phenylpropyl)-amino-3-carbamoyloxypropanol] |  | 98% |
|  | CNC(=O)[C@@H](NC(C)CCc1ccccc1)[C@H](O)c1ccc(O)c(O)c1 (relative stereo) [compound 48] |  | 100% |
| > 70% | CC(CCc1ccccc1)N[C@H](C(=O)N1CCc2ccccc21)[C@H](O)c1ccc(O)c(O)c1 (relative stereo) [compound 77] | 96% |  |
| > 70% | COC(=O)[C@@H](NC(C)CCC(C)C)[C@H](O)c1ccc(O)c(O)c1 (relative stereo) [compound 142] |  | 91% |
|  | COC(=O)[C@@H](NC(C)CCc1ccc(O)cc1)[C@H](O)c1ccc(O)c(O)c1 (relative stereo) [compound 143] |  | 83% |
|  | COC(=O)[C@@H](NC(C)CCCCC(=O)Nc1ccc(C(F)(F)F)cc1)[C@H](O)c1ccc(O)c(O)c1 (relative stereo) [compound 146] |  | 94% |
|  | CCCCc1ccc(NC(=O)CCCCC(C)N[C@H](C(=O)OC)[C@H](O)c2ccc(O)c(O)c2)cc1 (relative stereo) [compound 147] |  | 100% |
|  | CC(CCc1ccccc1)N[C@H](C(N)=O)[C@H](O)c1ccc(O)c(O)c1 (relative stereo) [compound 177, DL-threo-3-(3,4-dihydroxphenyl)-N-(1-methyl-3-phenylpropyl)serine amide] |  | 86% |
|  | CC(CCc1ccccc1)N[C@H](C(=O)N1CCCC1)[C@H](O)c1ccc(O)c(O)c1 (stereo partly drawn) [Compd. No. 10, L-Threo-3-(3,4-dihydroxyphenyl)-N-(1-methyl-3-phenylpropyl)serine pyrrolidine amide] | 100% |  |
|  | COC(=O)[C@H](NC(C)CCc1ccccc1)[C@@H](O)c1ccc(O)c(O)c1 (stereo partly drawn) [Compd. No. 156, D-threo-3-(3,4-dihydroxyphenyl)-N-(1-methyl-3-phenylpropyl)serine methyl ester] |  | 90% |
|  | COc1cc(C)c(CCC(C)N[C@H](C(=O)N2CCCC2)[C@H](O)c2ccc(O)c(O)c2)c(C)c1C (some centres unmarked) [compound 28] | 94% |  |
|  | CC(CCc1ccc(F)cc1)N[C@H](C(=O)N1CCCC1)[C@H](O)c1ccc(O)c(O)c1 (some centres unmarked) [compound 29] | 97% |  |
|  | CC(CCc1cccc2ccccc12)N[C@H](C(=O)N1CCCC1)[C@H](O)c1ccc(O)c(O)c1 (some centres unmarked) [compound 34] | 92% |  |
|  | CC(CCc1ccco1)N[C@H](C(=O)N1CCCC1)[C@H](O)c1ccc(O)c(O)c1 (some centres unmarked) [compound 35] | 87% |  |
|  | CCCCc1ccc(NC(=O)CCCCC(C)N[C@H](C(=O)N2CCCC2)[C@H](O)c2ccc(O)c(O)c2)cc1 (some centres unmarked) [compound 41] | 81% |  |
|  | CC(CCCCC(=O)Nc1ccc(C(F)(F)F)cc1)N[C@H](C(=O)N1CCCC1)[C@H](O)c1ccc(O)c(O)c1 (some centres unmarked) [compound 42] | 97% |  |
|  | COC(=O)[C@@H]1CCCN1C(=O)[C@@H](NC(C)CCc1ccccc1)[C@H](O)c1ccc(O)c(O)c1 (some centres unmarked) [compound 65] | 85% |  |
